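How tested: cells in 96-well plates exposed to compound for 48 hours at five concentrations. TGI denotes the concentration required for complete inhibition of growth.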 Where a SMILES comes first, the peptide text is derived from it. [ ]: non-standard residue; d: D form. The star is where a group is joined. ξ: configuration not given here. ξD = NC(CC(=O)O)C(=O)O; Ac3c = NC1(C(=O)O)CC1; Boc = CC(C)(C)OC(=O)*; OBn = c1ccc(CO*)cc1
Experiments:
Test in all cases: NCI anticancer screen, dose series, 48 h
[1] = test system: SNB-75 CNS
[2] = test system: NCI/ADR-RES ovarian
[3] = test system: SF-268 CNS
[4] = test system: M14 melanoma
[5] = test system: MDA-MB-231 breast
[6] = test system: SF-539 CNS
[7] = test system: OVCAR-4 ovarian
[8] = test system: DU-145 prostate
[9] = test system: SF-295 CNS
[10] = test system: TK-10 renal

| SMILES | TGI [1] [µM] | TGI [2] [µM] | TGI [3] [µM] | TGI [4] [µM] | TGI [5] [µM] | TGI [6] [µM] | TGI [7] [µM] | TGI [8] [µM] | TGI [9] [µM] | TGI [10] [µM] |
| --- | --- | --- | --- | --- | --- | --- | --- | --- | --- | --- |
| CCOC(=O)c1c2c(n(-c3ccc(OC)cc3)c1C)C(=O)C(=O)c1ccccc1-2 | 4.09 | 2.01 | 3.76 | 3.17 | 4.37 | 1.76 | 3.44 | 3.06 | 3.17 | 3.33 |
| O=C1CCC2(CC1CCSc1ccccc1)OCCO2 (stereo not given) | > 100 | > 100 | > 100 | > 100 | > 100 | > 100 | > 100 | > 100 | > 100 | > 100 |
| COc1cc(/C=C2\N=C(c3ccccc3)N(/N=C3\C(=O)Nc4ccccc43)C2=O)cc(OC)c1OC | > 100 | > 100 | > 100 | > 100 | > 100 | > 100 | > 100 | > 100 | > 100 | > 100 |
| O=c1c2ccccc2n2nnc3ccc(NCCCNCCNCCCNc4ccc5nnn6c7ccccc7c(=O)c4c56)c1c32 | > 27.2 | > 25.5 | > 26.6 | > 30 | 7.37 | 8.46 | 21 | > 50 | > 27.5 | 19 |
| O=C(NCCCCNCCCNC(=O)c1ccccc1)c1ccccc1 | > 100 | > 100 | > 100 | > 100 | > 100 | > 100 | > 100 | > 100 | > 100 | > 100 |
| C=C(CC(=O)Nc1ccc(C(=O)OC)o1)C(=O)OC | > 100 | > 100 | > 100 | 36.1 | 58.2 | 36.1 | 71.6 | > 100 | > 100 | 46.1 |
| Cc1nccn1S(=O)(=O)c1ccc(Br)cc1Br | 57.9 | > 100 | > 100 | 39.7 | 48.5 | 41.4 | > 100 | > 100 | 93.1 | > 100 |
| NC(c1ccccc1)(C(F)(F)F)P1(=O)OC(=O)c2ccccc2O1 (stereo not given) | > 100 | > 100 | > 100 | > 100 | > 100 | > 100 | > 100 | > 100 | > 100 | > 100 |
| O=C(NC1(C(=O)NNc2nnc(-c3ccccc3)c(-c3ccccc3)n2)C(c2ccccc2)C(c2ccccc2)=NN1c1ccccc1)c1ccccc1 (stereo not given) | > 100 | > 100 | > 100 | > 100 | > 100 | > 100 | > 100 | > 100 | > 100 | > 100 |
| COC(=O)/C=C\C(C#N)(C#N)N=Cc1ccc(C)s1 | 19.9 | 28.7 | 19.1 | 3.5 | 18.3 | 10.1 | 13.1 | 9.11 | 31.8 | 3.8 |
| COC(=O)C1(NC(=O)C(CC(=O)OCc2ccccc2)NC(=O)OC(C)(C)C)CC1 (stereo not given) (Boc-[ξD](OBn)-[Ac3c]-OMe) | > 100 | > 100 | > 100 | > 100 | > 100 | > 100 | > 100 | > 100 | > 100 | > 100 |
| Cc1cc(Nc2ccc(N=Nc3ccc(O)c4ncccc34)cc2)nc(C)n1 | 43.6 | 61 | > 51.9 | 36.1 | 73.7 | 20.6 | 71.7 | 69.7 | > 80.4 | 50.2 |
| CC(NC1=NCCO1)c1cccc([N+](=O)[O-])c1 (stereo not given) | > 100 | > 100 | > 100 | > 100 | > 100 | > 100 | > 100 | > 100 | > 100 | > 100 |
| Nc1ccc(-c2nc3cc(F)ccc3s2)cc1I | 33.8 | 54.3 | 35.2 | > 100 | 30.4 | 29.8 | > 100 | > 100 | > 56.6 | 21.1 |
| Cc1cc(=O)n2nc(CSc3nnc(N)s3)sc2n1 | > 100 | > 100 | > 100 | > 100 | > 100 | > 100 | > 100 | > 100 | > 100 | > 100 |
| C=CCN(c1cc(OCc2ccccc2)c(NC(C)=O)cc1[N+](=O)[O-])S(C)(=O)=O | 43.6 | > 100 | 51.3 | > 100 | 29.5 | 31.8 | > 100 | > 100 | 60.4 | > 100 |
| O=C(CN1CCCCC1)c1ccc2c(c1)Sc1ccccc1O2 | 24.2 | 35 | 33.9 | 28.5 | 37.2 | 30.6 | 27.5 | 49.3 | 30.9 | 44.6 |
| CC1(C)[C@@H](Cn2cnc3c(=O)[nH]c(N)nc32)CC[C@@]1(C)CO | > 100 | > 100 | > 100 | > 100 | > 100 | > 100 | > 100 | > 100 | > 100 | > 100 |
| CCOC(=O)C1=C(C)C(C(=O)OC)/C(=C/c2cccc3cccnc23)C1=O (stereo not given) | > 10 | > 10 | > 10 | > 10 | > 10 | > 10 | > 10 | > 10 | > 10 | > 10 |
| N#Cc1c(N2CCCC2)ncn(Cc2ccccc2)c1=S | > 95.2 | > 100 | > 100 | > 100 | > 100 | > 100 | > 100 | > 100 | > 100 | > 100 |

— PubChem BioAssay (NCI)
